Assay results: PMC3230241 (Nature biotechnology, 2011)

Target: MRCKα (Homo sapiens, UniProt Q5VT25)
Assay: HotSpot radiometric kinase assay, MRCKα
Assay type: biochemical
Details: compound 0.5 μM, 10 μM ATP

Chain of MRCKα (Q5VT25 1-473): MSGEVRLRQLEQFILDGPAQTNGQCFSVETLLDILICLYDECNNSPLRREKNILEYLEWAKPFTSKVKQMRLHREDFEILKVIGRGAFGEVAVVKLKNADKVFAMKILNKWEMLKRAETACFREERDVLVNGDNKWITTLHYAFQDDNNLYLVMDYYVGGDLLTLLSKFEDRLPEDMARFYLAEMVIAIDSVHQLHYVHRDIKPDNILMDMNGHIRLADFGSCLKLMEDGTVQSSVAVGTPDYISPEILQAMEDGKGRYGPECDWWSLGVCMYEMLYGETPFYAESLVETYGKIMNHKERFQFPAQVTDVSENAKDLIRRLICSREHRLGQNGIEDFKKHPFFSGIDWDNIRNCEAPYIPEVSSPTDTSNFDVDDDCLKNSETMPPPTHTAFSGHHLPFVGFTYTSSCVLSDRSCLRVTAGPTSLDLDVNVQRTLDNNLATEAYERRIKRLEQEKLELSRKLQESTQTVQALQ

inhibition of MRCKα (next most potent target): 22%
SMILES: O=C(Nc1cccc(Nc2cc(Nc3cccc(C(F)(F)F)c3)ncn2)c1)C1CC1 [EGFR Inhibitor]
